Experiments:
JAK3 = molecular target: T1, JAK3 (Homo sapiens, UniProt P52333); assay: Biochemical JAK3 kinase assay (LanthaScreen); design: GST; purchased Life Technologies; settings: for JAK3 (pKi)-JAK1 (pKi): selectivity: difference of pKi JAK3 and pKi JAK1; for Ki: read-out: JAK 3 (pKi) (converted)
T1 sequence (P52333 1-1124): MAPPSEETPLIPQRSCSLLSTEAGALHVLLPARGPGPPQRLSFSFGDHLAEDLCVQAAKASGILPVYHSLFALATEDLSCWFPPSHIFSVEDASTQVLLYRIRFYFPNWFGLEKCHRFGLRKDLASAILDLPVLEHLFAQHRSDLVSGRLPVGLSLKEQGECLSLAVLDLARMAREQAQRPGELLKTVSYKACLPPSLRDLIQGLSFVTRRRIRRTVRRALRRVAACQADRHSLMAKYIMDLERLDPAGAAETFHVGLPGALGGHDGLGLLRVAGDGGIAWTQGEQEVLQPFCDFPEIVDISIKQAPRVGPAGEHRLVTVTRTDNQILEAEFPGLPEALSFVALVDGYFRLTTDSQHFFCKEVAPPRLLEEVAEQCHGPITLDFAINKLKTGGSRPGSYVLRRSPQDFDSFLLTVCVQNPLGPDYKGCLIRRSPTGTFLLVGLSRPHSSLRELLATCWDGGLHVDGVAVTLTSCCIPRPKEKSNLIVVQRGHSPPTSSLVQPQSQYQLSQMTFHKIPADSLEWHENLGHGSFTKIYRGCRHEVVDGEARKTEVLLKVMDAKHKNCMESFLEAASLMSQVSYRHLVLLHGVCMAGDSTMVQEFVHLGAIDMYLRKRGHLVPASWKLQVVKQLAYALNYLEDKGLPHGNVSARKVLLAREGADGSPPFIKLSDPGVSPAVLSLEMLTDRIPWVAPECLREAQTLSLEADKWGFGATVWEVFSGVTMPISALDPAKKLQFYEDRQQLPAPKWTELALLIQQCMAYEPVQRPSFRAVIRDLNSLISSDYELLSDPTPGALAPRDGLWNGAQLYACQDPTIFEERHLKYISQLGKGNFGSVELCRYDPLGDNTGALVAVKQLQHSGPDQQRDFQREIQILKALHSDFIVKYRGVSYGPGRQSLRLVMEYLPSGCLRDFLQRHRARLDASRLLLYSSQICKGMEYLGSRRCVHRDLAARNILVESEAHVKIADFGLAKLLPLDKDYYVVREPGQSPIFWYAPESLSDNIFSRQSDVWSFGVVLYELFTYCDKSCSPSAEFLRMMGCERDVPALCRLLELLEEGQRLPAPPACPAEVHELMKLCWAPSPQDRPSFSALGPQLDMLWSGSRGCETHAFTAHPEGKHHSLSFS
Procedure: (§1) A panel of four LanthaScreen JAK biochemical assays (JAK1, 2, 3 and Tyk2) were carried in a common kinase reaction buffer (50 mM HEPES, pH 7.5, 0.01% Brij-35, 10 mM MgCl2, and 1 mM EGTA). Recombinant GST-tagged JAK enzymes and a GFP-tagged STAT1 peptide substrate were obtained from Life Technologies.
(§2) Serially or discretely diluted compounds were pre-incubated with each of the four JAK enzymes and the substrate in white 384-well microplates (Corning) at ambient temperature for 1 h. ATP was subsequently added to initiate the kinase reactions in 10 μL total volume, with 1% DMSO. […] Kinase reactions were allowed to proceed for 1 hour at ambient temperature before a 10 μL preparation of EDTA (10 mM final concentration) and Tb-anti-pSTAT1 (pTyr701) antibody (Life Technologies, 2 nM final concentration) in TR-FRET dilution buffer (Life Technologies) was added. The plates were allowed to incubate at ambient temperature for 1 h before being read on the EnVision reader (Perkin Elmer). Emission ratio signals (520 nm/495 nm) were recorded and utilized to calculate the percent inhibition values based on DMSO and background controls.
(§3) For dose-response analysis, percent inhibition data were plotted vs. compound concentrations, and IC50 values were determined from a 4-parameter robust fit model with the Prism software (GraphPad Software). Results were expressed as pIC50 (negative logarithm of IC50) and subsequently converted to pKi (negative logarithm of dissociation constant, Ki) using the Cheng-Prusoff equation.

JAK1 = molecular target: T2, JAK1 (Homo sapiens, UniProt P23458); assay: Biochemical JAK1 kinase assay (LanthaScreen); settings: for Ki: read-out: JAK 1 (pKi) (converted)
T2 construct: GST; purchased Life Technologies
Procedure: as §1, §2, §3

[1] = tested on: IL-2 stimulated pSTAT5 in Tall-1 T cells; assay: Cellular JAK3 potency assay: inhibition of IL-2 stimulated pSTAT5 in Tall-1 T cells; assay type: cell-based, human; settings: for Tall-1 (pIC50): IL-2 stimulated pSTAT5 in Tall-1 T cells; for IC50: Homo sapiens, TALL-1, IL-2 stimulated pSTAT5 in Tall-1 T cells, read-out: Tall-1 (pIC50) (converted)
Procedure: The potency of test compounds for inhibition of interleukin-2 (IL-2) stimulated STAT5 phosphorylation was measured in the Tall-1 human T cell line (DSMZ) using AlphaLisa. Because IL-2 signals through JAK3, this assay provides a measure of JAK3 cellular potency.
Compounds were serially diluted in DMSO and dispensed acoustically to empty wells. Assay media (phenol red-free DMEM (Life Technologies) supplemented with 10% FBS (ATCC)) was dispensed (4 μL/well) and plates shaken at 900 rpm for 10 mins. Cells were seeded at 45,000 cells/well in assay media (4 μL/well), and incubated at 37° C., 5% CO2 for 1 hour, followed by the addition of IL-2 (R&D Systems; final concentration 300 ng/ml) in pre-warmed assay media (4 μL) for 30 minutes. After cytokine stimulation, cells were lysed with 6 ul of 3× AlphaLisa Lysis Buffer (PerkinElmer) containing 1× PhosStop and Complete tablets (Roche). The lysate was shaken at 900 rpm for 10 minutes at room temperature (RT). Phosphorylated STAT5 was measured via the pSTAT5 AlphaLisa kit (PerkinElmer). Freshly prepared acceptor bead mixture was dispensed onto lysate (5 μL) under green filtered <100 lux light. Plates were shaken at 900 rpm for 2 mins, briefly spun down, and incubated for 2 hrs at RT in the dark. Donor beads were dispensed (5 μL) under green filtered <100 lux light. Plates were shaken at 900 rpm for 2 minutes, briefly spun down, and incubated overnight at RT in the dark.
To determine the inhibitory potency of test compounds in response to IL-2, the average emission intensity of beads bound to pSTAT5 was measured in a human T cell line. IC50 values were determined from analysis of the inhibition curves of signal intensity versus compound concentration. Data are expressed as pIC50 (negative decadic logarithm IC50) values (mean±standard deviation).

T2 sequence (P23458 whole entry): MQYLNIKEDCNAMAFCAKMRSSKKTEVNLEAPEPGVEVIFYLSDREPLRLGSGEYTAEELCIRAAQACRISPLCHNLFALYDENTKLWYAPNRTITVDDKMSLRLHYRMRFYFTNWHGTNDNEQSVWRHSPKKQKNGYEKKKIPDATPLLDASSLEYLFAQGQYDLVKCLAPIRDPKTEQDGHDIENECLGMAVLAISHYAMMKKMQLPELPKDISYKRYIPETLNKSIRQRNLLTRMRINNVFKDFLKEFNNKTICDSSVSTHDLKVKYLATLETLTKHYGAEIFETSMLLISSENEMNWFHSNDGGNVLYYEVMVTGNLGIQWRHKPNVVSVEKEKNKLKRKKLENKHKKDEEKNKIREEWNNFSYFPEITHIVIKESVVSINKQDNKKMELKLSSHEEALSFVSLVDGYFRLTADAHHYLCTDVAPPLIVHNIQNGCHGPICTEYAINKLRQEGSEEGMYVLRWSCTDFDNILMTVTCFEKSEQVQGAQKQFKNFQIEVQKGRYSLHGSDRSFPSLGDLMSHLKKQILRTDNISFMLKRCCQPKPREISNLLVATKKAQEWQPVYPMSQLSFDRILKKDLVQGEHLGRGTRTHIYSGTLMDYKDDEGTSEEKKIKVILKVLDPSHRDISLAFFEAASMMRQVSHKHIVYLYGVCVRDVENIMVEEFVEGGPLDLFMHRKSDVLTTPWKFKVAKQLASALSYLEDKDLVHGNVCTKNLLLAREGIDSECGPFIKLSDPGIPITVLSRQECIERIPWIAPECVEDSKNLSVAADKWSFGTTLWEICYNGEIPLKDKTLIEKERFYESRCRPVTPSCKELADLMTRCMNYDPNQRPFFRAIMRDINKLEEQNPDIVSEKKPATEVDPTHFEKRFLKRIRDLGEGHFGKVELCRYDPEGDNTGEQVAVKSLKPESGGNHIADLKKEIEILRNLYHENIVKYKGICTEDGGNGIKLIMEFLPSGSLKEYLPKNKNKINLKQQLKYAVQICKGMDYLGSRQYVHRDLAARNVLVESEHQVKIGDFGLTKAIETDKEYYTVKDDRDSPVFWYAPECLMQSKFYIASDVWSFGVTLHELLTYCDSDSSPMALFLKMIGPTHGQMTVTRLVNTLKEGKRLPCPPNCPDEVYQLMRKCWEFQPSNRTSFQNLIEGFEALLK

| SMILES | JAK 3 (pKi) (JAK3) | JAK3 (pKi)-JAK1 (pKi) (JAK3) | JAK 1 (pKi) (JAK1) | Tall-1 (pIC50) [1] | Ki (JAK3) | Ki (JAK1) | IC50 [1] |
| --- | --- | --- | --- | --- | --- | --- | --- |
| C=CC(=O)N1CC(C(C)(C)Oc2cc(-c3ccc(O)c(F)c3)cc3[nH]ncc23)C1 [Compound 3-28] | A (a pKi value≥10 (Ki≤0.1 nM)) | A (a value of 3 or above) | E (a pKi value of 7 or below (Ki of 100 nM or above)) | A (a pIC50 value≥7.5 (IC50≤32 nM)) | – | – | – |
| C=CC(=O)N1CC(COc2nc(-c3ccc(O)cc3)cc3[nH]ncc23)C1 [Compound 3-29] | B (a pKi value between 9 and 10 (Ki between 1 nM and 0.1 nM)) | A (a value of 3 or above) | E (a pKi value of 7 or below (Ki of 100 nM or above)) | A (a pIC50 value≥7.5 (IC50≤32 nM)) | – | – | – |
| C=CC(=O)N1CC(COc2nc(-c3ccc(O)cc3)nc3[nH]ncc23)(OC)C1 [Compound 3-76] | – | A (a value of 3 or above) | – | – | < 0.1 nM | > 100 nM | 31.6 to 200 nM |
| CN(C)C/C=C/C(=O)N1CC(COc2cc(-c3ccc(O)c(F)c3F)cc3[nH]ncc23)C1 [Compound 3-82] | – | B (a value of 2.3 to 3) | – | – | < 0.1 nM | 10 to 100 nM | < 31.6 nM |
| C#CC(=O)N1CC(COc2cc(-c3ccc(O)cc3)cc3[nH]ncc23)C1 [Compound 3-84] | – | A (a value of 3 or above) | – | – | < 0.1 nM | > 100 nM | 31.6 to 200 nM |
| C=CC(=O)N1CC(F)(COc2nc(-c3ccc(O)cc3)cc3[nH]ncc23)C1 [Compound 3-90] | – | B (a value of 2.3 to 3) | – | – | < 0.1 nM | 10 to 100 nM | < 31.6 nM |
| O=C(/C=C/CN1CCC1)N1CC(COc2cc(-c3ccc(O)cc3)cc3[nH]ncc23)C1 [Compound 3-123] | – | A (a value of 3 or above) | – | – | < 0.1 nM | > 100 nM | 200 to 1000 nM |
| O=C(/C=C/CN1CCCC1)N1CC(COc2cc(-c3ccc(O)cc3)cc3[nH]ncc23)C1 [Compound 3-124] | – | A (a value of 3 or above) | – | – | 0.1 to 1 nM | > 100 nM | 31.6 to 200 nM |
| O=C(/C=C/CN1CCOCC1)N1CC(COc2cc(-c3ccc(O)cc3)cc3[nH]ncc23)C1 [Compound 3-129] | – | A (a value of 3 or above) | – | – | 0.1 to 1 nM | > 100 nM | 200 to 1000 nM |
| O=C(/C=C/CN1CCSCC1)N1CC(COc2cc(-c3ccc(O)cc3)cc3[nH]ncc23)C1 [Compound 3-130] | – | A (a value of 3 or above) | – | – | 0.1 to 1 nM | > 100 nM | 31.6 to 200 nM |
| COC[C@H]1CCN(C/C=C/C(=O)N2CC(COc3cc(-c4ccc(O)cc4)cc4[nH]ncc34)C2)C1 [Compound 3-134] | – | A (a value of 3 or above) | – | – | 0.1 to 1 nM | > 100 nM | 31.6 to 200 nM |
| C=CC(=O)N1CC(CNc2cc(-c3ccc(O)cc3)cc3[nH]ncc23)C1 [Compound 4-3] | B (a pKi value between 9 and 10 (Ki between 1 nM and 0.1 nM)) | B (a value of 2.3 to 3) | E (a pKi value of 7 or below (Ki of 100 nM or above)) | B (a pIC50 value between 6.7 (included) and 7.5 (IC50 between 200 nM and 32 nM)) | – | – | – |
| CN(C)C/C=C/C(=O)N1CC(CN(C)c2nc(-c3ccc(O)cc3)cc3[nH]ncc23)C1 [Compound 4-8] | B (a pKi value between 9 and 10 (Ki between 1 nM and 0.1 nM)) | B (a value of 2.3 to 3) | E (a pKi value of 7 or below (Ki of 100 nM or above)) | B (a pIC50 value between 6.7 (included) and 7.5 (IC50 between 200 nM and 32 nM)) | – | – | – |
| CN(C)C/C=C/C(=O)N1CC(Oc2cc(-c3ccc(O)cc3)cc3[nH]ncc23)C1 [Compound 5-1] | B (a pKi value between 9 and 10 (Ki between 1 nM and 0.1 nM)) | A (a value of 3 or above) | E (a pKi value of 7 or below (Ki of 100 nM or above)) | C (a pIC50 value between 6 and 6.7 (IC50 between 1 μM and 200 nM)) | – | – | – |
| CN(C)C/C=C/C(=O)N1CC(N(C)c2cc(-c3ccc(O)cc3)cc3[nH]ncc23)C1 [Compound 5-8] | B (a pKi value between 9 and 10 (Ki between 1 nM and 0.1 nM)) | A (a value of 3 or above) | E (a pKi value of 7 or below (Ki of 100 nM or above)) | C (a pIC50 value between 6 and 6.7 (IC50 between 1 μM and 200 nM)) | – | – | – |
| C=CC(=O)N1CC(N(C)c2cc(-c3ccc(O)cc3)cc3[nH]ncc23)C1 [Compound 5-9] | B (a pKi value between 9 and 10 (Ki between 1 nM and 0.1 nM)) | A (a value of 3 or above) | E (a pKi value of 7 or below (Ki of 100 nM or above)) | C (a pIC50 value between 6 and 6.7 (IC50 between 1 μM and 200 nM)) | – | – | – |
| CN(C)C/C=C/C(=O)N1CC(C)(Oc2cc(-c3ccc(O)cc3)cc3[nH]ncc23)C1 [Compound 5-11] | B (a pKi value between 9 and 10 (Ki between 1 nM and 0.1 nM)) | A (a value of 3 or above) | E (a pKi value of 7 or below (Ki of 100 nM or above)) | B (a pIC50 value between 6.7 (included) and 7.5 (IC50 between 200 nM and 32 nM)) | – | – | – |
| CN(C)C/C=C/C(=O)N1CC(Oc2cc(-c3ccc(O)cc3)cc3[nH]ncc23)(C2CC2)C1 [Compound 5-13] | B (a pKi value between 9 and 10 (Ki between 1 nM and 0.1 nM)) | B (a value of 2.3 to 3) | E (a pKi value of 7 or below (Ki of 100 nM or above)) | B (a pIC50 value between 6.7 (included) and 7.5 (IC50 between 200 nM and 32 nM)) | – | – | – |
| C=CC(=O)N1CC(Oc2cc(-c3ccc(O)cc3)nc3[nH]ncc23)C1 [Compound 5-15] | A (a pKi value≥10 (Ki≤0.1 nM)) | A (a value of 3 or above) | E (a pKi value of 7 or below (Ki of 100 nM or above)) | B (a pIC50 value between 6.7 (included) and 7.5 (IC50 between 200 nM and 32 nM)) | – | – | – |
